Experimental data from patent US12324818B2, “Generation of alveolar epithelial type 1 (AT1) cells” (TRUSTEES OF BOSTON UNIVERSITY, priority 2022, dated 2025).

B1: keratinocyte growth factor (KGF) protein (protein, UniProt P21781 32-194, looked up)
Fibroblast growth factor 7: CNDMTPEQMATNVNCSSPERHTRSYDYMEGGDIRVRRLFCRTQWYLRIDKRGKVKGTQEMKNNYNIMEIRTVAVGIVAIKGVESEFYLAMNKEGKLYAKKECNEDCNFKELILENHYNTYASAKWTHNGGEMFVALNQKGIPVRGKKTKKEQKTAHFLPMAIT
notes: recombinant human keratinocyte growth factor

Legend:
Assay type in all cases: cell-based, human
[1] = test system: iAT2s; experiment: Withdrawal of Chir or KGF in YAP5SA-transduced BU3 NGAT iAT2s; conditions: YAP5SA differentiation model
Text: FIG. 13A) BU3 NGAT iAT2s were passaged into 3D Matrigel in CK+DCI for 3 days, and then media was switched to media containing LATS-IN-1 and either Chir or KGF and grown for a further 11 days. Representative flow cytometry of NKX2-1GFPand AGERtdTomato. FIG. 13B) Quantification of AGERtdTomatocompared to CK DCI+L and DCI+L quantification in FIGS. 5A-5L. (N=3 per condition, 1 way ANOVA). FIG. 13C) BU3 NGAT iAT2s were transduced with either WT YAP or YAP5SA lentivirus in suspension with polybrene for 4 hours and then replated into 3D Matrigel in CK DCI. After 5 days, media was changed to withdraw one or both growth factors from the media. Cells were analyzed 11 days post media change. FIG. 13D) Cell counts of WT YAP and YAP5SA transduced cells in different medias (2 way ANOVA). First series is CK+DCI, second series is C+DCI, third series is K+DCI, fourth series is DCI. FIG. 13E) Representative flow cytometry of NKX2-1GFP and AGERtdTomato. FIG. 13F) Quantification of AGERtdTomatopercentage and Mean Fluorescence Intensity following YAP5SA transduction. (2 way ANOVA). First series is CK+DCI, second series is C+DCI, third series is K+DCI, fourth series is DCI. FIGS. 13G-13H) Gene expression of AT1 markers, YAP downstream targets, and AT2 markers by whole well RT-qPCR. (N=3, 2 way ANOVA). First series is CK+DCI, second series is C+DCI, third series is K+DCI, fourth series is DCI. […]

[2] = test system: iAT2s; experiment: AGERtdTomato reporter induction in BU3 NGAT iAT2s (flow cytometry, live imaging); conditions: for effect on AGERtdTomato percentage and MFI: media containing L
Text: FIG. 5A) BU3 NGAT iAT2s were passaged as usual into 3D Matrigel with CK+DCI+RI medium for 3 days. Medium was then kept the same or switched to LATS inhibitor-based media. CK DCI+L, DCI, or L DCI. (C=Chir, K=rhKGF, L=LATS-IN-1; “DCI” as defined in FIG. 2). FIG. 5B) Representative live fluorescence microscopy of iAT2s (BU3 NGAT clone) at 9 days after changing to the indicated medium, either without (FIG. 5B) or with (FIG. 5C) YAP5SA transduction (Scale bars=500 um in B; 50 um in FIG. 5C). FIG. 5D) Representative flow cytometry plots of NKX2-1GFP and AGERtdTomato 9 days post after changing to cach indicate medium. FIG. 5E) Cell counts and flow cytometry quantification of AGER tdTomato+ percentage and Mean Fluorescence Intensity (MFI) 9 days post medium change. One way ANOVA, N=3 per condition. FIG. 5F) Gene expression of AT1 and AT2 markers by whole well RT-qPCR. (1 way ANOVA, N=3 per condition). FIG. 5G) Whole mount immunofluorescence microscopy of BU3 NGAT organoids in L+DCI. Scale bar=50 um. FIG. 5H) Primary adult human AT2 cells (1° AT2s) were cultured as described 5 and 7 days post plating, medium was changed to published, human-serum containing Alveolar Differentiation Media (ADM) or L+DCI. Whole well RT-qPCR of selected genes 7 days post medium change. 1 way ANOVA, N=3 per condition. FIG. 5I) Experimental schematic: BU3 NGAT iAT1s were grown in L+DCI for 10 days, sorted on AGERtdTomato, and then plated in 3D Matrigel in either L+DCI or CK+DCI. Outgrowths of sorted cells were analyzed after an additional 9 days. FIG. 5J) Representative flow cytometry plots of AGERtdTomato+ outgrowth from (FIG. 5I). FIG. 5K) Quantification of indicated fluorescence (FACS), cell counts, or transcript expression (FIG. 5LL; whole well RT-qPCR) of cells from (FIG. 5I). Control sorted iAT1s in L are freshly sorted AGERtdTomato+ cells after 9 days in L+DCI. (N=3 per condition; K=Student's t test; L=1 way ANOVA). *p<0.05, **p<0.01, ***p<0.001, and […] for all panels.
(§1) iPSCs were first differentiated into iAT2s and passaged as above in 3D cultures in iAT2 medium (CK+DCI) supplemented for the first 3 days after passaging with 10 uM Y-27632 (Tocris). To generate iAT1s, 3 days after passaging iAT2s in 3D, the medium was replaced with “L+DCI”, consisting of [10 uM LATS-IN-1 (“L”; MedChemExpress Cat. No.: HY-138489), 50 nM dexamethasone (“D”; Sigma-Aldrich), 0.1 mM 8-bromoadenosine 3′,5′cyclic monophosphate sodium salt (Sigma-Aldrich; “C”), and 0.1 mM 3-isobutyl-1-methylxanthine (IBMX; Sigma-Aldrich; “I”)]. Cells were cultured up to 16 days in L+DCI in 3D while monitoring AGERtdTomatoexpression as detailed in the text.
0.05% trypsin was used to generate single cell suspensions which were resuspended in sort buffer [HBSS (ThermoFisher) with 2% FBS, 10 uM Y-27632 (Tocris)] with Live/dead stain [Calcein blue (Life technologies) or DRAQ7 (Abcam)]. Cells were sorted based on reporter expression: NKX2-1GFP and AGERtdTomatofor BU3 NGAT, or SFTPCtdTomatofor SPC2B2, as indicated in the text. Cell sorting was performed on a Moflo Astrios EQ (Beckman Coulter) and flow cytometry analysis was performed on an LSRII SORP (BD Biosciences) at the Boston University Flow Cytometry Core Facility. For Edu assays, the Click-iT Plus EdU Alexa Fluor 647 Flow Cytometry Assay Kit (Thermo Fisher Scientific) was used with EdU added 24 hours before cell isolation, and cells fixed in 4% paraformaldehyde (PFA) were analyzed on a Stratedigm (S1000EXI) cytometer with post-processing using Flow Jo software (BD Biosciences). For all other analyses, live non-fixed cells were sorted or analyzed as indicated in the text.

[3] = test system: iAT2s; experiment: Whole well RT-qPCR of AT1/AT2 markers in iAT2s in LATS inhibitor media
Description: as §1
For RT-qPCR, whole well or sorted cells were collected and stored in Qiazol (Qiagen, 79306) prior to RNA isolation using RNeasy Plus Mini Kit according to the manufacturer's protocol (Qiagen, 74104), cDNA was then synthesized using MultiScribe™ Reverse Transcriptase (ThermoFisher 4311235). A QuantStudio instrument (Applied Biosciences) and predesigned Taqman probes were used and run in a 384-well format for 40 cycles. Relative expression was normalized to an 18S control and fold change over control cells was calculated using 2-ΔΔCt. Where indicated in the text, RNA extracts from adult primary human distal lung tissue explants, the kind gift of Barry Stripp (Cedars Sinai, Los Angeles) were employed as RT-qPCR controls. RNA was isolated via RNeasy Plus Mini Kit following manufacturer's protocol.

| Molecule | effect on AGERtdTomato and AT1 markers by bulk RT-qPCR [1] | effect on AGERtdTomato percentage and MFI [2] | AGERtdTomato induction, % of the NKX2-1GFP+ cells ([2]; BU3 NGAT iAT2s in L+DCI, increasing over the following 2 weeks) [%] | time to detectable AGERtdTomato induction in the NKX2-1+ population ([2]; L supplementation of iAT2s) [h] | time to morphologic changes resembling YAP5SA-transduced cells ([2]; L supplementation of iAT2s) [hours] | iAT2s in which the AT1 program is driven ([2]; complete serum free defined media containing LATS inhibitor) | dose yielding greatest frequency and brightness (MFI) of NKX2-1GFP/AGERtdTomato+ cells ([2]; dose response testing, medium replaced day 3 after passaging, 2 weeks post passage) [µM] | NKX2-1 expression ([3]; iAT2 media vs medias containing LATS-IN-1) | SFTPC expression ([3]; medias containing LATS-IN-1) | AGER, CAV1, PDPN, and CLIC5 expression ([3]; whole well RT-qPCR, wells containing the LATS inhibitor) |
| --- | --- | --- | --- | --- | --- | --- | --- | --- | --- | --- |
| Cc1c[nH]c(-c2cnc(NCCNc3ccc(C#N)cn3)nc2-c2ccc(Cl)cc2Cl)n1 [Chir, CHIR99021] | inhibitory effects | significantly inhibitory |  |  |  |  |  |  |  |  |
| O=C(N=c1sccn1Cc1ccccc1)c1c[nH]c2ncccc12 [LATS-IN-1, N-(3-benzylthiazol-2(3H)-ylidene)-1H-pyrrolo[2,3-b]pyridine-3-carboxamide] |  |  | 84.97±1.23 | ≤ 72 | ≤ 48 | up to 97% | 10 | unchanged | decreased | significantly upregulated |
| B1 | inhibitory effects | significantly inhibitory |  |  |  |  |  |  |  |  |
